For this assay, the target named is T1, Tg_CA (Toxoplasma gondii, UniProt S8F479).
T1 construct: gene TGME49_259950; alpha-CA domain, residues 487-830 of an 861-residue protein; E. coli BL21(DE3) codon-plus; about 47 kDa
T1 sequence (S8F479 487-830): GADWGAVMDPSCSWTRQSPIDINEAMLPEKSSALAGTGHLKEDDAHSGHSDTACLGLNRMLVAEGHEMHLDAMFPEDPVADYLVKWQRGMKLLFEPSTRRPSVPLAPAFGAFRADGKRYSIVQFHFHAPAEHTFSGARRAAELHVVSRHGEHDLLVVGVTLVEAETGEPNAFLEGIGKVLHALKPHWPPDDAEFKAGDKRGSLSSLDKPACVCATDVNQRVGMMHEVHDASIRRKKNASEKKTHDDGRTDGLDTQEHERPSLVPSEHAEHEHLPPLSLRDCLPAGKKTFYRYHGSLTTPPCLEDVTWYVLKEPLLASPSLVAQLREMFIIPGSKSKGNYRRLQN
In words: stopped-flow CO2 hydration, phenol red, Cheng-Prusoff. Type of assay: biochemical.
Compound `NS(=O)(=O)c1cc(Cl)c(Cl)c(S(N)(=O)=O)c1` [DCP, Dichlorphenamide] returned a Ki of 77.5 nM.
Turning to `CC(=O)N=c1sc(S(N)(=O)=O)nn1C` [MZA, Methazolamide], the Ki was 24.7 nM.
Take `Nc1ccc(S(=O)(=O)Nc2nnc(S(N)(=O)=O)s2)cc1` [compound 20]: the Ki is 17.8 nM.
In the case of `NS(=O)(=O)c1cc2c(cc1Cl)NCNS2(=O)=O` [HCT, Hydrochlorothiazide] it was 839 nM; in that of `Cn1nc(S(N)(=O)=O)sc1=N` [compound 14], 61 nM.
For the compound `CC1(C)O[C@@H]2[C@@H](CO[C@@]3(COS(N)(=O)=O)OC(C)(C)O[C@@H]23)O1` [TPM, Topiramate], the Ki stood at 720 nM.
The same measure for `NS(=O)(=O)c1ccc(CCNS(=O)(=O)c2ccc([N+](=O)[O-])cc2CO)cc1` [compound 21]: 94.7 nM; for `CCN[C@H]1CN(CCCOC)S(=O)(=O)c2sc(S(N)(=O)=O)cc21` [BRZ, Brinzolamide]: 77.8 nM.
In the case of `O=C1NS(=O)(=O)c2ccccc21` [SAC, Saccharin] it was 8450 nM; in that of `NS(=O)(=O)c1ccc(CO)cc1` [compound 16], 91.6 nM.
The same measure for `NS(=O)(=O)Cc1noc2ccccc12` [ZNS, Zonisamide]: 912 nM.
`Nc1cc(Cl)c(S(N)(=O)=O)cc1S(N)(=O)=O` [compound 12] had a Ki of 73.8 nM.
The compound `Nc1cc(C(F)(F)F)c(S(N)(=O)=O)cc1S(N)(=O)=O` [compound 11] yielded a Ki of 65.1 nM.
In turn, `Nc1ccc(S(=O)(=O)NCCc2ccc(S(N)(=O)=O)cc2)cc1` [compound 24] displayed a Ki of 204 nM.
The same measure for `Nc1nnc(S(N)(=O)=O)s1` [compound 13]: 57.5 nM.
The same measure for `NS(=O)(=O)c1nnc(NS(=O)(=O)c2ccccc2)s1` [BZA, Benzolamide]: 62.1 nM; for `Nc1ccc(S(=O)(=O)NCc2ccc(S(N)(=O)=O)cc2)cc1` [compound 23]: 93.4 nM; for `NS(=O)(=O)c1ccc(C(=O)O)cc1` [compound 18]: 85.3 nM.
`NCc1ccc(S(N)(=O)=O)cc1` [compound 5] displayed a Ki of 739 nM.
In the case of `Nc1nccc(Nc2ccc(S(N)(=O)=O)cc2)n1` [compound 19] it was 72.5 nM; in that of `Cc1onc(-c2ccccc2)c1-c1ccc(S(N)(=O)=O)cc1` [VLX, Valdecoxib], 426 nM.
The same measure for `Cc1ccc(S(N)(=O)=O)cc1` [compound 4]: 586 nM; for `Nc1ccc(S(=O)(=O)Nc2ccc(S(N)(=O)=O)cc2)cc1` [compound 22]: 91.2 nM; for `NS(=O)(=O)c1ccc(O)cc1` [compound 15]: 76.4 nM.
For the compound `Cc1ccc(-c2cc(C(F)(F)F)nn2-c2ccc(S(N)(=O)=O)cc2)cc1` [CLX, Celecoxib], the affinity corresponds to a Ki of 508 nM.
The compound `NS(=O)(=O)c1cc(Cl)cc(Cl)c1O` [compound 10] displayed a Ki of 578 nM.
`NS(=O)(=O)c1ccc(CCO)cc1` [compound 17] returned a Ki of 263 nM.
In the case of `NS(=O)(=O)c1ccc(S(=O)(=O)Nc2cccc3c(Cl)c[nH]c23)cc1` [IND, Indisulam] it was 84 nM.
